From patent publication US7579468B2, “Methods of modulating neurotrophin-mediated activity” (PainCeptor Pharma Corporation, priority 2005, dated 2009)
Entries after “also recorded” stand apart in the source; their conditions may differ.

Columns and labels:
[1] = test system: T1, PC12 (TrkA & p75); test: 125I-NGF binding displacement in PC12 cells; parameters: species or system rat; details: PC12 cells expressing TrkA and p75; individual experiment
T1 construct: other: Concentration 25 μM; PC12 cells; other: Concentration 50 μM; other: PC12 cells; 125I-NGF ~0.11 nM; other: PC12 cells expressing TrkA and p75; individual experiment; fused on or other part: 125I label on NGF
Experimental: (§1) All cells were incubated at 37° C. in 5% CO2. PC12 cells were maintained in RPMI-1640 medium supplemented with 10% fetal bovine serum (FBS). A875 human melanoma cells were maintained in DMEM with 10% FBS. HEK 293 cells were stably transfected with human TrkA plasmid (see below) and maintained in DMEM with 10% FBS and G418 (600 μg/mL) for selection.
(§2) NGF binding was evaluated using methods familiar to those who are skilled in the art. Briefly, cells expressing one or both NGF receptors (PC12: TrkA+p75; A875: p75 alone; HEK_TrkA: TrkA alone) were harvested by replacing the medium with calcium-magnesium free balanced salt (Grey's) solution and incubating at 37° C. for 15 min. For NGF binding, cells were resuspended at a concentration of 2×10^6 cells/mL in HEPES-Krebs-Ringer (HKR) buffer (10 mM HEPES; 125 mM NaCl; 4.8 mM KCl; 1.3 mM CaCl2; 1.2 mM MgSO4; 1.2 mM KH2PO4; 1 mg/ml BSA; 1 mg/ml glucose; pH 7.4) and exposed to ^125I-NGF (˜0.11 nM) in the presence or absence of varying concentrations of the compound. Non-specific binding was determined for reference by incubating ^125I-NGF with an excess of non-radioactive NGF in the absence of compound. Following a two-hour incubation period at 4° C., ^125I-NGF bound to the cells was quantified in a gamma radiation counter following separation from unbound NGF by filtration or centrifugation through glycerol (10% in HKR). Inhibition of binding was calculated as a percent of the specific binding (calculated as the differential between ^125I-NGF binding in the absence and presence of an excess of non-radioactive NGF without compound). Dose-response inhibition curves were typically generated with seven concentrations of a given compound, with three replicates for each concentration. For most compounds, multiple dose-response curves were generated.

[2] = test system: T2, PC12 (TrkA & p75); test: 125I-NGF binding displacement in PC12 cells; parameters: species or system rat; details: PC12, A875 and HEK_TrkA cells taken together
T2 construct: other: PC12, A875 an; fused on or other part: 125I label on NGF
Experimental: as §1, §2

[3] = test system: Male Sprague-Dawley rats; test: Chung or Spinal Nerve Ligation (SNL) model of neuropathic pain; assay type: in vivo, rat; details: Von Frey filaments, 90 min post-treatment, 5 and 10 mg/kg i.p.
Description: The Spinal Nerve Ligation (SNL) model (Kim and Chung, Pain 1992; 50: 355) was used to induce chronic neuropathic pain. Male Sprague-Dawley rats (Harlan, Indianapolis, Ind., USA) were anesthetized with isoflurane, the left […] was removed, and the L5 and L6 spinal nerves were tightly ligated with 6-0 silk suture. The wound was then closed with internal sutures and external staples.
Mechanical allodynia testing: Pre- and post-injury baselines as well as post-treatment values (vehicle or compound-treated animals) for non-noxious mechanical sensitivity were evaluated using 8 Semmes-Weinstein filaments (Stoelting, Wood Dale, Ill., USA) with varying stiffness according to the up-down method (Chaplan et al., J Neurosci Methods 1994; 53: 55). […] The mean and standard error of the mean (SEM) were determined for each paw in each treatment group. […] Effects of compounds were evaluated two weeks after the injury. Compound or vehicle was administered (i.p. or s.c.) and effects on mechanical allodynia were measured at different time points after dosing (e.g., 30, 60 and 90 min.). […]
Data analysis: Statistical analyses were conducted using Prism™ 4.01 (GraphPad, San Diego, Calif., USA). Mechanical hypersensitivity of the injured paw was determined by comparing contralateral to ipsilateral paw values within the vehicle group at each time point. Data were analyzed using the Mann-Whitney test. […]

[4] = test system: Mice; test: Writhing Test (acetic acid abdominal contraction test); assay type: in vivo, mouse
Experimental: The acetic acid abdominal contraction test (Martinez et al., Pain 1999; 81: 179) was used to determine the efficacy of different compounds in a model of acute visceral chemical nociception. […] Compound or vehicle was administered (i.p. or s.c.) 15-45 minutes prior to the acetic acid injection. Each episode of writhing is characterized by a lengthwise stretching of the torso with a concomitant arching of the back.
Statistical analysis was performed using Prism™ 4.01 software package (GraphPad, San Diego, Calif., USA). The difference in response levels between treatment groups and control vehicle group was analyzed using an ANOVA followed by Bonferroni's method for post-hoc pair-wise comparisons. A p value <0.05 was considered to be significant.

[5] = test system: A875: p75 alone; test: 125I-NGF binding displacement in A875 cells; parameters: species or system human; details: A875 cells expressing p75; individual experiment
Experimental: as §1, §2

[6] = test system: HEK_TrkA: TrkA alone (human TrkA); test: 125I-NGF binding displacement in HEK_TrkA cells; details: individual experiment
Experimental: as §1
Expression of human TrkA in HEK cells was achieved by transfecting the cells with the TrkA expression vector using Lipofectamine (Invitrogen) reagent. HEK cells were plated in 100 mm Petri dishes at a concentration of 10^6 cells per dish. The next day, a solution of DNA diluted in 1 mL OptiMEM (Invitrogen) per dish was prepared and incubated for 15 min at room temperature. […]
NGF binding was evaluated using methods familiar to those who are skilled in the art. […] Non-specific binding was determined for reference by incubating ^125I-NGF with an excess of non-radioactive NGF in the absence of compound. Following a two-hour incubation period at 4° C., ^125I-NGF bound to the cells was quantified in a gamma radiation counter following separation from unbound NGF by filtration or centrifugation through glycerol (10% in HKR). Inhibition of binding was calculated as a percent of the specific binding (calculated as the differential between ^125I-NGF binding in the absence and presence of an excess of non-radioactive NGF without compound). […]

Structure (SMILES): CC(=O)Nc1cc2c3c(cc(NC(C)=O)cc3c1)C(=O)N(CCCC(=O)O)C2=O [Compound 11, 4-(5,8-Bis-acetylamino-1,3-dioxo-1H,3H-benzo[de]isoquinolin-2-yl)-butyric acid]
- NGF binding displacement, dose-response curve [1]: effectively blocks NGF binding to cells expressing TrkA and p75
- Block of NGF binding to TrkA and/or p75 (summary of FIGS. 1B, 2A, 2B, 4A, 4B, 6A, 6B, 7A, 8A, 8B) [2]: effectively block NGF binding to TrkA and/or p75
- Effect on mechanical allodynia in the SNL model [3]: significant dose-dependent reversal of the mechanical allodynia; also recorded: significant antinociceptive effects
- Number of abdominal contractions (writhing) ([4]; 15 mg/kg i.p., 30 minutes following acetic acid, vehicle 54±6): 28±4
- Antinociceptive effect in the Writhing Test ([4]; Compound 63 100 mg/kg i.p., Compound 11 15 mg/kg i.p., 10-20 minutes before acetic acid): significant antinociceptive effects
- NGF binding displacement, dose-response curve [5]: effectively blocks NGF binding to cells expressing p75
- NGF binding displacement, dose-response curve [6]: effectively blocks NGF binding to TrkA
